For 16 compounds, TGI results are on record in PubChem BioAssay (NCI).

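Five compound concentrations were applied to cells in 96-well plates for 48 hours; endpoints were derived by simple linear interpolation of the resulting dose-response curve. Definition used: TGI = concentration required for complete inhibition of growth.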

Some test systems named below: UACC-62 melanoma; SNB-75 CNS; LOX IMVI melanoma; HCC-2998 colon; MDA-MB-231 breast; SK-MEL-28 melanoma; OVCAR-5 ovarian; K-562 leukemia; HL-60(TB) leukemia; OVCAR-4 ovarian.
Common to all, as to test: growth of human tumour cells (NCI), 48 h

For the compound `Brc1ccc2c(-c3csc(-c4c[nH]c5cc(Br)ccc45)n3)c[nH]c2c1`, the TGI with UACC-62 melanoma was greater than 100 µM; with SNB-75 CNS it was 66.1 µM; in the assay with LOX IMVI melanoma, greater than 57.1 µM; in the assay on HCC-2998 colon, greater than 100 µM; in the assay on MDA-MB-231 breast, greater than 70.6 µM; with SK-MEL-28 melanoma, greater than 100 µM. Besides, the TGI is greater than 90.2 µM with OVCAR-5 ovarian, greater than 43.8 µM with K-562 leukemia, greater than 100 µM with HL-60(TB) leukemia and 97.7 µM in the assay with OVCAR-4 ovarian.
On to `Brc1cc2nn(-c3ccccc3)nc2c2nonc12`, for which the TGI in the assay with UACC-62 melanoma, in the assay on SNB-75 CNS, in the assay on LOX IMVI melanoma, with HCC-2998 colon, in the assay on MDA-MB-231 breast and in the assay on SK-MEL-28 melanoma was greater than 100 µM each time. The TGI in the assay with OVCAR-5 ovarian, in the assay with K-562 leukemia, in the assay on HL-60(TB) leukemia and in the assay on OVCAR-4 ovarian was greater than 100 µM each time.
Regarding `CCOC(=O)C(CC#Cc1ccc(C#CCC(NC(C)=O)C(=O)OCC)cc1)NC(C)=O` (stereo not given), the TGI in the assay with UACC-62 melanoma, with SNB-75 CNS, in the assay on LOX IMVI melanoma, with HCC-2998 colon, in the assay on MDA-MB-231 breast and with SK-MEL-28 melanoma was greater than 100 µM throughout. Besides, the TGI in the assay on OVCAR-5 ovarian, in the assay with K-562 leukemia, with HL-60(TB) leukemia and in the assay with OVCAR-4 ovarian was greater than 100 µM throughout.
With `O=c1c2ccccc2nc(Nc2cccc(Cl)c2)n1/N=C/C=C/c1ccccc1`, the TGI in the assay with UACC-62 melanoma, in the assay on SNB-75 CNS, in the assay with LOX IMVI melanoma, with HCC-2998 colon, in the assay with MDA-MB-231 breast and in the assay with SK-MEL-28 melanoma was greater than 100 µM in each case. Further, the TGI in the assay on OVCAR-5 ovarian, in the assay with K-562 leukemia, in the assay on HL-60(TB) leukemia and in the assay on OVCAR-4 ovarian was greater than 100 µM in each case.
For the compound `O=C1C=C(c2ccccc2)O/C1=C/C(=O)c1ccc(Cl)cc1`, the TGI with UACC-62 melanoma is 28.5 µM; in the assay with SNB-75 CNS it was 23.6 µM; in the assay with LOX IMVI melanoma, 26.1 µM; in the assay with HCC-2998 colon it was 32.2 µM; in the assay with MDA-MB-231 breast, 31.2 µM; with SK-MEL-28 melanoma, 32.9 µM. The TGI in the assay on OVCAR-5 ovarian came to 43.3 µM; in the assay with K-562 leukemia, 33.7 µM; with HL-60(TB) leukemia it was 5.38 µM; in the assay on OVCAR-4 ovarian it was 32.9 µM.
Take `COc1ccc2cc(NC(=O)N/N=C\c3ccc(Cl)cc3)ccc2c1`: the TGI in the assay with UACC-62 melanoma, with SNB-75 CNS, with LOX IMVI melanoma, in the assay on HCC-2998 colon, with MDA-MB-231 breast and in the assay with SK-MEL-28 melanoma was greater than 100 µM each time. Besides, the TGI in the assay with OVCAR-5 ovarian, in the assay on K-562 leukemia, in the assay with HL-60(TB) leukemia and in the assay on OVCAR-4 ovarian was greater than 100 µM in each case.
On to `CSc1nc2c(c(=O)n1C)N=C(c1ccccc1)[C@H](C(CC(=O)c1ccccc1)c1ccccc1)C(c1ccccc1)N2` (stereo not given in full), for which the TGI with UACC-62 melanoma, with SNB-75 CNS, with LOX IMVI melanoma, in the assay with HCC-2998 colon, in the assay with MDA-MB-231 breast and in the assay with SK-MEL-28 melanoma was greater than 100 µM each time. In addition, the TGI in the assay with OVCAR-5 ovarian, in the assay on K-562 leukemia, with HL-60(TB) leukemia and in the assay on OVCAR-4 ovarian was greater than 100 µM each time.
For the compound `C=c1c(OC)c(OC)c(O)c2c1=c1cc([N+](=O)[O-])cc(OC)c1=N2`, the TGI in the assay with UACC-62 melanoma, with SNB-75 CNS, in the assay with LOX IMVI melanoma, in the assay with HCC-2998 colon, in the assay with MDA-MB-231 breast and in the assay on SK-MEL-28 melanoma was greater than 100 µM each time. The TGI in the assay on OVCAR-5 ovarian, in the assay on K-562 leukemia, in the assay with HL-60(TB) leukemia and in the assay on OVCAR-4 ovarian was greater than 100 µM throughout.
On to `O=c1oc2cc(O)ccc2c(O)c1C(c1ccc(C(c2c(O)c3ccc(O)cc3oc2=O)c2c(O)c3ccc(O)cc3oc2=O)cc1)c1c(O)c2ccc(O)cc2oc1=O`, for which the TGI with UACC-62 melanoma, in the assay on SNB-75 CNS, in the assay with LOX IMVI melanoma, in the assay with HCC-2998 colon, in the assay on MDA-MB-231 breast and with SK-MEL-28 melanoma was greater than 100 µM throughout. The TGI in the assay on OVCAR-5 ovarian, with K-562 leukemia, in the assay on HL-60(TB) leukemia and in the assay on OVCAR-4 ovarian was greater than 100 µM each time.
For the compound `CCOC(=O)C(NC(=O)CC(C)C)(N1CCN(c2cc3c(cc2F)c(=O)c(C(=O)O)cn3C2CC2)CC1)C(F)(F)F` (stereo not given), the TGI in the assay with UACC-62 melanoma was found to be 30.2 µM; in the assay with SNB-75 CNS, 64.5 µM; with LOX IMVI melanoma, 35.5 µM; in the assay with HCC-2998 colon it was 28.4 µM; in the assay on MDA-MB-231 breast, 46.1 µM; in the assay with SK-MEL-28 melanoma it was 55.5 µM. Moreover, the TGI with OVCAR-5 ovarian stood at 32.8 µM; in the assay on K-562 leukemia, 42 µM; in the assay on HL-60(TB) leukemia, 26 µM; in the assay on OVCAR-4 ovarian, 68 µM.
`NC(N)=NS(=O)(=O)c1ccc(NC(=O)c2ccc3nc4ccccc4c(Nc4ccc(S(=O)(=O)N=C(N)N)cc4)c3c2)cc1`: the TGI in the assay on UACC-62 melanoma, in the assay with SNB-75 CNS, with LOX IMVI melanoma, with HCC-2998 colon, in the assay on MDA-MB-231 breast and in the assay on SK-MEL-28 melanoma was greater than 100 µM throughout. Further, the TGI with OVCAR-5 ovarian, in the assay on K-562 leukemia, in the assay with HL-60(TB) leukemia and in the assay with OVCAR-4 ovarian was greater than 100 µM throughout.
Take `CCN1CCC(O)(C(C(=O)O)c2ccccc2)CC1` (stereo not given): the TGI with UACC-62 melanoma, with SNB-75 CNS, with LOX IMVI melanoma, in the assay with HCC-2998 colon, with MDA-MB-231 breast and with SK-MEL-28 melanoma was greater than 100 µM in each case. Further, the TGI with OVCAR-5 ovarian, in the assay on K-562 leukemia, with HL-60(TB) leukemia and in the assay with OVCAR-4 ovarian was greater than 100 µM throughout.
Regarding `Cc1cn([C@@H]2C[C@H]2CO)c(=O)[nH]c1=O`, the TGI with UACC-62 melanoma, with SNB-75 CNS, in the assay with LOX IMVI melanoma, in the assay on HCC-2998 colon, with MDA-MB-231 breast and in the assay with SK-MEL-28 melanoma was greater than 100 µM in each case. In addition, the TGI with OVCAR-5 ovarian, with K-562 leukemia, in the assay with HL-60(TB) leukemia and with OVCAR-4 ovarian was greater than 100 µM each time.
Turning to `O=C(Nc1ccccc1C(=O)NCCCO)/C(=C/c1ccccc1O)NC(=O)c1ccccc1`, the TGI is 60 µM with UACC-62 melanoma; greater than 83.9 µM with SNB-75 CNS; greater than 100 µM in the assay with LOX IMVI melanoma; greater than 100 µM in the assay with HCC-2998 colon; greater than 59.3 µM with MDA-MB-231 breast; greater than 100 µM with SK-MEL-28 melanoma. Moreover, the TGI with OVCAR-5 ovarian, in the assay on K-562 leukemia, with HL-60(TB) leukemia and with OVCAR-4 ovarian was greater than 100 µM each time.
Regarding `Cc1c2ncccc2cc2oc3ccccc3c(=O)c12`, the TGI in the assay with UACC-62 melanoma, with SNB-75 CNS, in the assay on LOX IMVI melanoma, in the assay with HCC-2998 colon, with MDA-MB-231 breast and in the assay on SK-MEL-28 melanoma was greater than 100 µM each time. Also, the TGI in the assay with OVCAR-5 ovarian was 59.7 µM; in the assay with K-562 leukemia it was greater than 100 µM; in the assay on HL-60(TB) leukemia, greater than 100 µM; in the assay with OVCAR-4 ovarian, greater than 100 µM.
Take `c1ccc2c3c(c(N4CCOCC4)nc2c1)CCCC3`: the TGI in the assay on UACC-62 melanoma was greater than 100 µM; in the assay with SNB-75 CNS it was 83.1 µM; in the assay with LOX IMVI melanoma, greater than 100 µM; in the assay with HCC-2998 colon, greater than 100 µM; in the assay with MDA-MB-231 breast, greater than 100 µM; with SK-MEL-28 melanoma, greater than 100 µM. Moreover, the TGI with OVCAR-5 ovarian was 81.2 µM; with K-562 leukemia it was greater than 100 µM; in the assay on HL-60(TB) leukemia it was 69.3 µM; in the assay with OVCAR-4 ovarian it was greater than 100 µM.
